Data on 2 compounds can be found in patent US8629301B2, “Process for the purification of benzphetamine hydrochloride” (Mallinckrodt LLC, priority 2004, dated 2014).

The structures appear in SMILES notation.

A short description of the series: partition between organic layer (toluene) and aqueous layer at adjusted pH. Particulars: for logD hydrocarbon water: toluene/water.

As for `C[C@@H](Cc1ccccc1)N(C)Cc1ccccc1` [Benzphetamine, d-N-methyl-N-benzyl-beta-phenylisopropylamine], the “partition coefficient (ratio of equilibrium concentration in the organic layer to that in the aqueous layer)” value by setting is: (pH 4) 0.600; (pH 8) “∞”; (pH 10) “∞”. Further, the logD hydrocarbon water (pH 6) was 1.87.

On to `CN[C@@H](C)Cc1ccccc1` [Methamphetamine, methamphetamine], for which the “partition coefficient (ratio of equilibrium concentration in the organic layer to that in the aqueous layer)” value turned out to be 0.015 (pH 4), 0.000 (pH 6) and 0.124 (pH 8). In addition, the logD hydrocarbon water (pH 10) is 0.527.
